pEC50, pKi: −log10 of the molar value. In brackets after ≈: the same amount, converted by molar mass. Some results are limits rather than exact numbers.

System in one data set: not listed separately
Description: Solubility in pH 7.4 phosphate buffer solution at 100 uM after 24 hrs by HPLC method. The format is physicochemical. As to conditions: phosphate buffer, pH 7.4.
A word on the solubility: it is how much of the substance goes into solution per volume. The compound `Cc1ccc(Nc2c(NCCCCCC(=O)NO)c(=O)c2=O)cc1` came in with a solubility at 24 h, 100 µM of 8.1 µM (≈ 2.68 µg/mL).

Consider `CC(C)(Nc1c(NCCCCCC(=O)NO)c(=O)c1=O)c1ccccc1`, for which the solubility at 24 h, 100 µM stood at 88 µM (≈ 31.6 µg/mL).

The compound `COc1cc(Nc2c(NCCCCCC(=O)NO)c(=O)c2=O)ccc1N(C)C` registered a solubility at 24 h, 100 µM of 93 µM (≈ 36.3 µg/mL).

As for `O=C(CCCCCCNc1c(Nc2ccccc2)c(=O)c1=O)NO`, the solubility at 24 h, 100 µM was 6 µM (≈ 1.99 µg/mL).

In the case of `CC[C@H](Nc1c(NCCCCCC(=O)NO)c(=O)c1=O)c1ccccc1`, the solubility at 24 h, 100 µM is 75 µM (≈ 27 µg/mL).

`CC(CCCCC(=O)NO)Nc1c(Nc2ccc(C(F)(F)F)cc2)c(=O)c1=O` (racemic) displayed a solubility at 24 h, 100 µM of 30 µM (≈ 12 µg/mL).

`O=C(CCCCCCC(=O)Nc1ccccc1)NO` [VORINOSTAT] showed a solubility at 24 h, 100 µM of 87 µM (≈ 23 µg/mL).

The compound `C[C@@H](Nc1c(NCCCCCC(=O)NO)c(=O)c1=O)c1ccccc1` showed a solubility at 24 h, 100 µM of 80 µM (≈ 27.6 µg/mL).

With `CC(CCCCC(=O)NO)Nc1c(Nc2ccccc2)c(=O)c1=O` (racemic), the concentration in solution (solubility at 24 h, 100 µM) was 93 µM (≈ 30.8 µg/mL).

In turn, `C[C@H](CCCCC(=O)NO)Nc1c(Nc2ccc3cc(C(F)(F)F)[nH]c3c2)c(=O)c1=O` came in with a solubility at 24 h, 100 µM of 10 µM (≈ 4.38 µg/mL).

The compound `CCC(CCCCC(=O)NO)Nc1c(Nc2ccc(C(F)(F)F)cc2)c(=O)c1=O` (racemic) yielded a solubility at 24 h, 100 µM of 6.6 µM (≈ 2.73 µg/mL).

`C[C@H](CCCCC(=O)NO)Nc1c(Nc2ccc(N(C)C)cc2)c(=O)c1=O` came in with a solubility at 24 h, 100 µM of 80 µM (≈ 30 µg/mL).

As to `Cc1ccc(Nc2c(NC(C)CCCCC(=O)NO)c(=O)c2=O)cc1` (racemic), the solubility at 24 h, 100 µM came to 83 µM (≈ 28.7 µg/mL).

`COc1ccc(Nc2c(NC3(CCCCC(=O)NO)CCC3)c(=O)c2=O)cc1` came in with a solubility at 24 h, 100 µM of 82 µM (≈ 31.8 µg/mL).

The compound `COc1ccc(Nc2c(NC(C)(C)CCCCC(=O)NO)c(=O)c2=O)cc1` came in with a solubility at 24 h, 100 µM of 99 µM (≈ 37.2 µg/mL).

System in a further data set: not listed separately
As to the kind of experiment: Clearance in human hepatocytes assessed per million cells at 1 uM after 5 to 90 mins by LC-MS/MS analysis. Type of data set: ADME, cell-based, Hepatocyte. Particulars: read-out: CLH.
Regarding `Cc1ccc(Nc2c(NCCCCCC(=O)NO)c(=O)c2=O)cc1`, the hepatocyte CLint at 1 µM was 7.2 µL/min/1e6 cells.

Regarding `CC(C)(Nc1c(NCCCCCC(=O)NO)c(=O)c1=O)c1ccccc1`, the hepatocyte CLint at 1 µM is below 5 µL/min/1e6 cells.

With `COc1cc(Nc2c(NCCCCCC(=O)NO)c(=O)c2=O)ccc1N(C)C`, the hepatocyte CLint at 1 µM is below 5 µL/min/1e6 cells.

For the compound `O=C(CCCCCCNc1c(Nc2ccccc2)c(=O)c1=O)NO`, the hepatocyte CLint at 1 µM was below 5 µL/min/1e6 cells.

In the case of `CC[C@H](Nc1c(NCCCCCC(=O)NO)c(=O)c1=O)c1ccccc1`, the hepatocyte CLint at 1 µM was below 5 µL/min/1e6 cells.

In the case of `CC(CCCCC(=O)NO)Nc1c(Nc2ccc(C(F)(F)F)cc2)c(=O)c1=O` (racemic), the hepatocyte CLint at 1 µM came out at 21 µL/min/1e6 cells.

On to `O=C(CCCCCCC(=O)Nc1ccccc1)NO` [VORINOSTAT], for which the hepatocyte CLint at 1 µM was below 5 µL/min/1e6 cells.

For `C[C@@H](Nc1c(NCCCCCC(=O)NO)c(=O)c1=O)c1ccccc1`, the hepatocyte CLint at 1 µM was below 5 µL/min/1e6 cells.

`CC(CCCCC(=O)NO)Nc1c(Nc2ccccc2)c(=O)c1=O` (racemic): the hepatocyte CLint at 1 µM was below 5 µL/min/1e6 cells.

For the compound `C[C@H](CCCCC(=O)NO)Nc1c(Nc2ccc3cc(C(F)(F)F)[nH]c3c2)c(=O)c1=O`, the hepatocyte CLint at 1 µM came out at 10 µL/min/1e6 cells.

Regarding `CCC(CCCCC(=O)NO)Nc1c(Nc2ccc(C(F)(F)F)cc2)c(=O)c1=O` (racemic), the hepatocyte CLint at 1 µM was found to be 25 µL/min/1e6 cells.

In the case of `C[C@H](CCCCC(=O)NO)Nc1c(Nc2ccc(N(C)C)cc2)c(=O)c1=O`, the hepatocyte CLint at 1 µM is below 5 µL/min/1e6 cells.

`Cc1ccc(Nc2c(NC(C)CCCCC(=O)NO)c(=O)c2=O)cc1` (racemic): the hepatocyte CLint at 1 µM was below 6.5 µL/min/1e6 cells.

Consider `COc1ccc(Nc2c(NC3(CCCCC(=O)NO)CCC3)c(=O)c2=O)cc1`, for which the hepatocyte CLint at 1 µM was 17 µL/min/1e6 cells.

For `COc1ccc(Nc2c(NC(C)(C)CCCCC(=O)NO)c(=O)c2=O)cc1`, the hepatocyte CLint at 1 µM amounted to 9.2 µL/min/1e6 cells.

In a further data set the target is Histone deacetylase 1 (Homo sapiens, UniProt Q13547). Description: Inhibition of human recombinant HDAC1 using Fluor de Lys as substrate after 2 hrs by fluorescence method.
Sequence of Histone deacetylase 1 (Q13547 whole entry): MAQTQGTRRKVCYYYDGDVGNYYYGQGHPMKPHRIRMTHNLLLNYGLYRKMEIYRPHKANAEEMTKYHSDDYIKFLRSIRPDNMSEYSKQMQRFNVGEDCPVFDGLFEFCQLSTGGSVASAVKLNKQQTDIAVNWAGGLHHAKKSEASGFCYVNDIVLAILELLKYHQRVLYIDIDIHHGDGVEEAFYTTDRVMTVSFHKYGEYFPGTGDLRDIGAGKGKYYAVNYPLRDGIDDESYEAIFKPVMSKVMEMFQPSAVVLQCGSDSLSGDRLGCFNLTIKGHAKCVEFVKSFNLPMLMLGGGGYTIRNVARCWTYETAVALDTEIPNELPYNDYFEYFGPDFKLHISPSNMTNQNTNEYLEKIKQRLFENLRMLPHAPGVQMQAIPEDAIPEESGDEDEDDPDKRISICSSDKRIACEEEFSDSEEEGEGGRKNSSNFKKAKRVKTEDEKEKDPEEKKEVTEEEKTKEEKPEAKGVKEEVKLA
Details: not given
The term pKi denotes the negative decadic logarithm of the Ki, by convention in mol/L. On to `Cc1ccc(Nc2c(NCCCCCC(=O)NO)c(=O)c2=O)cc1`, for which the pKi was 10.24.

As for `CC(C)(Nc1c(NCCCCCC(=O)NO)c(=O)c1=O)c1ccccc1`, the pKi was 7.96.

In the case of `COc1cc(Nc2c(NCCCCCC(=O)NO)c(=O)c2=O)ccc1N(C)C`, the negative logarithm of the Ki (pKi) is 9.30.

Regarding `O=C(CCCCCCNc1c(Nc2ccccc2)c(=O)c1=O)NO`, the negative logarithm of the Ki (pKi) was 9.25.

For `CC[C@H](Nc1c(NCCCCCC(=O)NO)c(=O)c1=O)c1ccccc1`, the negative logarithm of the Ki (pKi) was 8.03.

`CC(CCCCC(=O)NO)Nc1c(Nc2ccc(C(F)(F)F)cc2)c(=O)c1=O` (racemic): the pKi is 9.55.

Consider `C[C@@H](Nc1c(NCCCCCC(=O)NO)c(=O)c1=O)c1ccccc1`, for which the pKi is 8.32.

For the compound `CC(CCCCC(=O)NO)Nc1c(Nc2ccccc2)c(=O)c1=O` (racemic), the pKi was 9.16.

For the compound `C[C@H](CCCCC(=O)NO)Nc1c(Nc2ccc3cc(C(F)(F)F)[nH]c3c2)c(=O)c1=O`, the pKi was 9.82.

On to `CCC(CCCCC(=O)NO)Nc1c(Nc2ccc(C(F)(F)F)cc2)c(=O)c1=O` (racemic), for which the negative logarithm of the Ki (pKi) was 9.29.

Turning to `C[C@H](CCCCC(=O)NO)Nc1c(Nc2ccc(N(C)C)cc2)c(=O)c1=O`, the pKi was 8.57.

Consider `Cc1ccc(Nc2c(NC(C)CCCCC(=O)NO)c(=O)c2=O)cc1` (racemic), for which the pKi was 10.01.

Regarding `COc1ccc(Nc2c(NC3(CCCCC(=O)NO)CCC3)c(=O)c2=O)cc1`, the pKi is 10.20.

On to `COc1ccc(Nc2c(NC(C)(C)CCCCC(=O)NO)c(=O)c2=O)cc1`, for which the negative-log Ki (pKi) is 10.25.

System in a further data set: not listed separately
Description: Solubility in PG/EtOH (96%) at 30 mg/mL after 24 hrs by UV-spectrometric method. As to conditions: 24 h. The format is physicochemical.
The compound `O=C(CCCCCCC(=O)Nc1ccccc1)NO` [VORINOSTAT] came in with a solubility of 32000 µM (≈ 8460 µg/mL).

Still in this data set, the particulars now being: PG/EtOH (96%).
As to `Cc1ccc(Nc2c(NCCCCCC(=O)NO)c(=O)c2=O)cc1`, the solubility at 24 h was determined as 1800 µM (≈ 596 µg/mL).

`CC(C)(Nc1c(NCCCCCC(=O)NO)c(=O)c1=O)c1ccccc1` returned a solubility at 24 h above 84000 µM.

Regarding `COc1cc(Nc2c(NCCCCCC(=O)NO)c(=O)c2=O)ccc1N(C)C`, the concentration in solution (solubility at 24 h) was 2600 µM (≈ 1020 µg/mL).

`O=C(CCCCCCNc1c(Nc2ccccc2)c(=O)c1=O)NO` showed a solubility at 24 h of 1800 µM (≈ 596 µg/mL).

Compound `CC[C@H](Nc1c(NCCCCCC(=O)NO)c(=O)c1=O)c1ccccc1` gave a solubility at 24 h of 57000 µM (≈ 20500 µg/mL).

The compound `CC(CCCCC(=O)NO)Nc1c(Nc2ccc(C(F)(F)F)cc2)c(=O)c1=O` (racemic) displayed a solubility at 24 h of 20000 µM (≈ 7990 µg/mL).

`C[C@@H](Nc1c(NCCCCCC(=O)NO)c(=O)c1=O)c1ccccc1` gave a solubility at 24 h of 39000 µM (≈ 13500 µg/mL).

Regarding `CC(CCCCC(=O)NO)Nc1c(Nc2ccccc2)c(=O)c1=O` (racemic), the solubility at 24 h stood at 46000 µM (≈ 15200 µg/mL).

In turn, `C[C@H](CCCCC(=O)NO)Nc1c(Nc2ccc3cc(C(F)(F)F)[nH]c3c2)c(=O)c1=O` had a solubility at 24 h of 21000 µM (≈ 9210 µg/mL).

In turn, `CCC(CCCCC(=O)NO)Nc1c(Nc2ccc(C(F)(F)F)cc2)c(=O)c1=O` (racemic) showed a solubility at 24 h of 25000 µM (≈ 10300 µg/mL).

For the compound `C[C@H](CCCCC(=O)NO)Nc1c(Nc2ccc(N(C)C)cc2)c(=O)c1=O`, the concentration in solution (solubility at 24 h) was 27000 µM (≈ 10100 µg/mL).

`Cc1ccc(Nc2c(NC(C)CCCCC(=O)NO)c(=O)c2=O)cc1` (racemic) yielded a solubility at 24 h of 4900 µM (≈ 1690 µg/mL).

For another data set, the system named is HuT78. Description: Pro-apoptotic activity in human HUT78 cells after 18 hrs by caspase-Glo 3/7 assay. The format is functional, cell-based. Particulars: HuT78, 18 h.
In general, pEC50 refers to −log10 of the EC50, conventionally taken in molar units. A lower pEC50 goes with a high EC50. For the compound `Cc1ccc(Nc2c(NCCCCCC(=O)NO)c(=O)c2=O)cc1`, the negative-log EC50 (pEC50) is 8.77.

Take `CC(C)(Nc1c(NCCCCCC(=O)NO)c(=O)c1=O)c1ccccc1`: the pEC50 is 5.96.

Regarding `COc1cc(Nc2c(NCCCCCC(=O)NO)c(=O)c2=O)ccc1N(C)C`, the negative logarithm of the EC50 (pEC50) was 6.54.

For the compound `O=C(CCCCCCNc1c(Nc2ccccc2)c(=O)c1=O)NO`, the pEC50 is 7.59.

As to `CC[C@H](Nc1c(NCCCCCC(=O)NO)c(=O)c1=O)c1ccccc1`, the negative logarithm of the EC50 (pEC50) is 6.77.

In the case of `CC(CCCCC(=O)NO)Nc1c(Nc2ccc(C(F)(F)F)cc2)c(=O)c1=O` (racemic), the pEC50 was 7.74.

The compound `C[C@@H](Nc1c(NCCCCCC(=O)NO)c(=O)c1=O)c1ccccc1` showed a negative logarithm of the EC50 (pEC50) of 7.00.

As to `CC(CCCCC(=O)NO)Nc1c(Nc2ccccc2)c(=O)c1=O` (racemic), the negative logarithm of the EC50 (pEC50) was 7.49.

In turn, `C[C@H](CCCCC(=O)NO)Nc1c(Nc2ccc3cc(C(F)(F)F)[nH]c3c2)c(=O)c1=O` showed a pEC50 of 8.14.

For `CCC(CCCCC(=O)NO)Nc1c(Nc2ccc(C(F)(F)F)cc2)c(=O)c1=O` (racemic), the pEC50 is 7.68.

The compound `C[C@H](CCCCC(=O)NO)Nc1c(Nc2ccc(N(C)C)cc2)c(=O)c1=O` had a pEC50 of 7.89.

For the compound `Cc1ccc(Nc2c(NC(C)CCCCC(=O)NO)c(=O)c2=O)cc1` (racemic), the negative logarithm of the EC50 (pEC50) is 8.25.

The compound `COc1ccc(Nc2c(NC3(CCCCC(=O)NO)CCC3)c(=O)c2=O)cc1` gave a pEC50 of 7.92.

`COc1ccc(Nc2c(NC(C)(C)CCCCC(=O)NO)c(=O)c2=O)cc1` had a pEC50 of 8.26.
